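Exposure lasted 48 hours, with cells grown in 96-well plates and compounds tested at five concentrations. GI50: concentration for 50% inhibition of growth.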 The source made the active and inactive calls. Cut-off read from the data, not from the text of the source: active = GI50 up to about 1.1 µM and inactive = higher.
How the values were obtained:
Assay in all cases: inhibition of tumour cell growth, NCI panel, 48 h
786-0 = system: 786-0
BT-549 = system: BT-549
HL-60 = system: HL-60
KM12 = system: KM12
MDA-MB-231 = system: MDA-MB-231
MDA-MB-435 = system: MDA-MB-435
OVCAR-5 = system: OVCAR-5
PC-3 = system: PC-3
SF-268 = system: SF-268
SF-295 = system: SF-295
SNB-75 = system: SNB-75
UO-31 = system: UO-31
DLD-1 = system: DLD-1
DMS-273 = system: DMS-273
KM-20L2 = system: KM-20L2
SR = system: SR
XF498 = system: XF498
MDA-N = system: MDA-N
T47D = system: T47D
HOP-18 = system: HOP-18

SMILES	GI50 (786-0)	GI50 (BT-549)	GI50 (HL-60)	GI50 (KM12)	GI50 (MDA-MB-231)	GI50 (MDA-MB-435)	GI50 (OVCAR-5)	GI50 (PC-3)	GI50 (SF-268)	GI50 (SF-295)	GI50 (SNB-75)	GI50 (UO-31)	GI50 (DLD-1)	GI50 (DMS-273)	GI50 (KM-20L2)	GI50 (SR)	GI50 (XF498)	GI50 (MDA-N)	GI50 (T47D)	GI50 (HOP-18)
COc1ccccc1/C=C1\NC(=S)N(/C=C2\C(=O)Oc3ccccc3C2=O)C1=O	52.5 µM (inactive)	21.9 µM (inactive)	9.84 µM (inactive)	47 µM (inactive)	40.7 µM (inactive)	35.2 µM (inactive)	> 100 µM (inactive)	44.2 µM (inactive)	98.6 µM (inactive)	45.2 µM (inactive)	30.1 µM (inactive)	21.2 µM (inactive)								
CCC1C[N+]23CCc4c([nH]c5ccccc45)C2CC1CC3 (centres undefined)				64.7 µM (inactive)			> 100 µM (inactive)		> 100 µM (inactive)	> 100 µM (inactive)	98.9 µM (inactive)	41.4 µM (inactive)	76 µM (inactive)	55.5 µM (inactive)	97.1 µM (inactive)	39.3 µM (inactive)	42.9 µM (inactive)			
CN(C)CCN(/C(=N/c1ccccc1)N1CCCC1)c1ccccc1	> 10 µM (inactive)	> 100 µM (inactive)	11.6 µM (inactive)	20 µM (inactive)		15.5 µM (inactive)	> 100 µM (inactive)	19.8 µM (inactive)	> 100 µM (inactive)	18.4 µM (inactive)	49 µM (inactive)	21.9 µM (inactive)				31.8 µM (inactive)		4.1 µM (inactive)	> 100 µM (inactive)	
CC1=C(C(=O)N[C@@H](CC(C)C)C(=O)O)N2C(=O)[C@@H](NC(=O)C(N)c3ccccc3)[C@H]2SC1 (some centres undefined)	> 100 µM (inactive)	> 100 µM (inactive)	> 100 µM (inactive)	> 100 µM (inactive)	> 100 µM (inactive)	> 100 µM (inactive)	> 100 µM (inactive)	> 100 µM (inactive)	> 100 µM (inactive)	> 100 µM (inactive)	> 100 µM (inactive)					> 100 µM (inactive)		> 100 µM (inactive)	> 100 µM (inactive)	
O=C1OC(=O)C2C1C(c1ccccc1[N+](=O)[O-])C=C(c1ccco1)N2c1ccncc1 (centres undefined)	1.91 µM (inactive)	11.6 µM (inactive)	1.77 µM (inactive)	1.98 µM (inactive)	13 µM (inactive)	8.39 µM (inactive)	18.2 µM (inactive)	13.3 µM (inactive)	10.3 µM (inactive)	10.3 µM (inactive)	14 µM (inactive)	6.01 µM (inactive)				0.679 µM (active)		4.52 µM (inactive)	4.97 µM (inactive)	
O=C1/C(=C/c2ccc(Cl)cc2)CNC/C1=C\c1ccc(Cl)cc1	1.28 µM (inactive)	1.18 µM (inactive)		1.22 µM (inactive)	2.88 µM (inactive)	2.82 µM (inactive)	4.79 µM (inactive)	2.97 µM (inactive)	1.51 µM (inactive)		4.36 µM (inactive)					0.495 µM (active)		2.71 µM (inactive)	5 µM (inactive)	
Nc1c(Cl)c([N+](=O)[O-])cc2c1OCCCCO2	> 100 µM (inactive)		> 100 µM (inactive)	> 100 µM (inactive)	83.4 µM (inactive)	> 100 µM (inactive)	> 100 µM (inactive)	> 100 µM (inactive)	> 100 µM (inactive)	> 100 µM (inactive)	23.8 µM (inactive)	> 100 µM (inactive)				> 100 µM (inactive)		> 100 µM (inactive)	> 100 µM (inactive)	
CC(C)C1CNC(=O)C2(/C=N/C(C(C)C)CNC(=O)C3(/C=N/1)CCCO3)CCCO2 (centres undefined)	> 10 µM (inactive)	> 10 µM (inactive)	> 10 µM (inactive)	> 10 µM (inactive)	> 10 µM (inactive)	> 10 µM (inactive)		> 10 µM (inactive)	> 10 µM (inactive)	> 10 µM (inactive)	> 10 µM (inactive)					> 10 µM (inactive)		> 10 µM (inactive)	> 10 µM (inactive)	
COc1ccc(/C=C2\Oc3cc(OC(C)=O)ccc3C2=O)cc1	> 100 µM (inactive)	> 100 µM (inactive)	94 µM (inactive)	> 100 µM (inactive)	> 100 µM (inactive)	> 100 µM (inactive)		> 100 µM (inactive)	> 100 µM (inactive)	> 100 µM (inactive)	> 100 µM (inactive)	> 100 µM (inactive)				60.8 µM (inactive)		76.2 µM (inactive)	> 100 µM (inactive)	
CC1CC2C3CC(F)C4=CC(=O)C=CC4(C)C3(F)C(O)CC2(C)C1(O)C(=O)COC(=O)C(C)(C)C (centres undefined)	68.1 µM (inactive)		> 100 µM (inactive)	> 100 µM (inactive)			> 100 µM (inactive)		64.4 µM (inactive)	61.7 µM (inactive)	82.2 µM (inactive)	> 100 µM (inactive)	> 100 µM (inactive)	> 100 µM (inactive)	> 100 µM (inactive)	> 100 µM (inactive)	> 100 µM (inactive)			
O=C(c1ccccc1)c1cn(/N=C\c2ccccc2)c(=O)nc1-c1ccccc1	> 100 µM (inactive)			> 100 µM (inactive)			> 100 µM (inactive)		> 100 µM (inactive)	> 100 µM (inactive)	> 100 µM (inactive)	> 100 µM (inactive)	> 100 µM (inactive)		> 100 µM (inactive)					> 100 µM (inactive)
Cn1cnnc1Sc1c([N+](=O)[O-])nc(-c2ccc([N+](=O)[O-])cc2)n1C	17.7 µM (inactive)			20.5 µM (inactive)			27.7 µM (inactive)		16.9 µM (inactive)	> 100 µM (inactive)	31.3 µM (inactive)	14.7 µM (inactive)	15.3 µM (inactive)	17.4 µM (inactive)		16.2 µM (inactive)	10.4 µM (inactive)			17.4 µM (inactive)
O=C1c2ccccc2C(=O)c2c1ccc1c2N=C(c2ccc(F)cc2)CC(c2ccc(Cl)c(Cl)c2)N1 (centres undefined)			3.94 µM (inactive)	6 µM (inactive)			14.7 µM (inactive)		15.2 µM (inactive)	14.6 µM (inactive)	20.5 µM (inactive)	10.8 µM (inactive)	12.9 µM (inactive)		15.7 µM (inactive)	5.93 µM (inactive)				
O=C(O)c1cccc2cccc(-c3c4ccc(=O)cc-4oc4cc(O)ccc34)c12		> 100 µM (inactive)	62.7 µM (inactive)	> 100 µM (inactive)	81.1 µM (inactive)	> 100 µM (inactive)	> 100 µM (inactive)	> 100 µM (inactive)	> 100 µM (inactive)	34.8 µM (inactive)	60.1 µM (inactive)	> 100 µM (inactive)						71 µM (inactive)	> 100 µM (inactive)	
O=C(O)CN1CCCC(Cc2c[nH]c3ccccc23)C1 (centres undefined)		> 100 µM (inactive)		> 100 µM (inactive)	> 100 µM (inactive)	> 100 µM (inactive)	> 100 µM (inactive)	> 100 µM (inactive)	> 100 µM (inactive)	> 100 µM (inactive)	> 100 µM (inactive)	> 100 µM (inactive)						> 100 µM (inactive)		
O=C1C[C@H](c2ccccc2)C2(C(=O)c3ccccc3C2=O)[C@@H](c2ccccc2)C1		19.6 µM (inactive)	73.1 µM (inactive)	> 10 µM (inactive)	20.7 µM (inactive)	> 10 µM (inactive)	42.2 µM (inactive)	10.8 µM (inactive)		25.6 µM (inactive)	28.4 µM (inactive)	33.3 µM (inactive)				92.7 µM (inactive)		16.2 µM (inactive)	43.1 µM (inactive)	
CC1OC(OC2C(OC(=O)[C@@H]3CC(C)(C)C[C@H]4C5=CC[C@@H]6[C@@]7(C)C[C@H](O)[C@H](OC8OC(CO)C(O)C(O)C8O)[C@@](C)(CO)[C@@H]7[C@H](O)C[C@@]6(C)[C@]5(C)CC[C@@]34C)OCC(O)C2O)C(O)C(O)C1O (some centres undefined)	> 7.5 µM (inactive)	> 7.5 µM (inactive)	> 7.5 µM (inactive)	> 7.5 µM (inactive)	> 7.5 µM (inactive)	> 7.5 µM (inactive)	> 7.5 µM (inactive)	> 7.5 µM (inactive)	> 7.5 µM (inactive)	> 7.5 µM (inactive)	> 7.5 µM (inactive)	> 7.5 µM (inactive)						> 7.5 µM (inactive)	> 7.5 µM (inactive)	
O=C1Nc2ccc(S(=O)(=O)N(CCO)CCO)cc2/C1=C1/Nc2ccccc2C1=O	> 100 µM (inactive)	> 100 µM (inactive)		17.7 µM (inactive)	40.5 µM (inactive)	> 100 µM (inactive)	> 100 µM (inactive)	30.3 µM (inactive)	> 100 µM (inactive)	> 100 µM (inactive)	2.82 µM (inactive)	> 100 µM (inactive)				1.91 µM (inactive)		> 100 µM (inactive)	0.679 µM (active)	
Cc1cc(NS(=O)(=O)c2ccc(Nc3c4ccccc4nc4c(C(=O)N5CCN(CCO)CC5)ccc(Cl)c34)cc2)no1	> 100 µM (inactive)		60.3 µM (inactive)	> 100 µM (inactive)			> 100 µM (inactive)		98.9 µM (inactive)	> 100 µM (inactive)	29.6 µM (inactive)	> 100 µM (inactive)	52.5 µM (inactive)	> 100 µM (inactive)	> 100 µM (inactive)		> 100 µM (inactive)			
N=C(N)C1CN(CCCCCCCCCCN2CC(C(=N)N)C(O)=NC2=O)C(=O)N=C1O (centres undefined)	> 10 µM (inactive)	> 10 µM (inactive)	> 10 µM (inactive)	> 10 µM (inactive)	> 10 µM (inactive)	> 10 µM (inactive)	> 10 µM (inactive)	> 10 µM (inactive)		> 10 µM (inactive)	> 10 µM (inactive)					> 10 µM (inactive)		> 10 µM (inactive)	> 10 µM (inactive)	
